PubChem BioAssay (NCI)
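Five concentrations, 48 hours, 96-well plates. Here, GI50 denotes the concentration required for 50% inhibition of growth. TGI is the concentration that stops growth completely.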 Where a SMILES comes first, the peptide text is derived from it. [ ]: non-standard residue; d: D form. The star is where a group is joined. NMeAc5c = CNC1(C(=O)O)CCCC1; Boc = CC(C)(C)OC(=O)*; OBn = c1ccc(CO*)cc1

Tested on: SK-OV-3 ovarian
Assay: NCI anticancer screen, dose series, 48 h

SMILES | TGI [µM] | GI50 [µM]
NC(N)=N/N=C/c1c(-c2ccc(N)cc2)nc2sccn12 | 64 | 
CCCCCCc1cc2cc(-c3csc(CC#N)n3)c(=O)oc2cc1O | 97.6 | 
C=C1C(=O)O[C@@H]2C(=O)[C@@H](C)CCC/C(C)=C/CC[C@@]3(C)O[C@@H]3C[C@@H]12 | > 100 | 
COc1cc(Br)cc2cc(-c3cn4ccsc4n3)c(=O)oc12 | > 100 | 
O=C(NC(=O)c1ccccc1[N+](=O)[O-])Nc1ccc(Oc2ncc(Br)cn2)c(Cl)c1 |  | < 0.0176
ClCCN1CCC2(CC1)SSC1(CCN(CCCl)CC1)S2 | 98.7 | 
O=c1c2cc([N+](=O)[O-])cnc2sn1-c1ccc([N+](=O)[O-])cc1 | > 100 | 
COC(=O)C1SC(SC)=NC12c1ccccc1Nc1ccccc12 (stereo not given) | > 100 | 
COc1ccc2cc(NC(=O)N/N=C\c3ccc([N+](=O)[O-])cc3)ccc2c1 | > 100 | 
CCOC(=O)C1(C/C=C/CBr)Cc2ccccc2C1=O (stereo not given) | 21.5 | 
CN1CCc2cc(N)cc3c2C1Cc1ccc(O)c(O)c1-3 (stereo not given) | > 100 | 
CCCN(C(=O)c1ccccc1)C(C#N)c1ccc(C(C#N)N(CCC)C(=O)c2ccccc2)cc1 (stereo not given) | > 100 | 
S=C1Nc2ccccc2SC1c1ccccc1 (stereo not given) | > 100 | 
COC(=O)c1ccccc1CC1Cc2ccc3c(c2C1=O)CCCC3 (stereo not given) | > 100 | 
CN1CCN(C2=NCCO2)CC1 | > 100 | 
c1ccc(N=c2sc3ccccc3nc2Nc2ccccc2)cc1 | > 100 | 
CCOC(=O)c1csc(NC(=O)CN2CCOCC2)n1 | > 100 | 

SMILES | TGI [µM] | GI50 [µM]
O=C1/C(=C/c2ccccc2)N=C2Sc3c(nc[nH]c3=O)N12 | > 100 | 
C=CC1(C)CCC2C(=CCC3C2(C)CC(O)C(O)C3(C)COC2OC(C(=O)O)C(O)C(O)C2O)C1 (stereo not given) (tested in a mixture with another compound) | > 100 | 
N#Cc1c(N2CCCC2)ncn(-c2ccccc2)c1=O | > 100 | 
O=[N+]([O-])c1ccc2c(c1)/C(=N/N=C1c3ccccc3Cc3ccccc31)c1cc([N+](=O)[O-])cc([N+](=O)[O-])c1-2 | 27.3 | 
CN(C(=O)C(Cc1ccccc1)NC(=O)OC(C)(C)C)C1(C(=O)NC(Cc2ccccc2)C(=O)OCc2ccccc2)CCCC1 (stereo not drawn) (Boc-Phe-[NMeAc5c]-Phe-OBn; configuration not given here) | 41.3 | 
Cc1ccc([N+](=O)[O-])cc1NC1=NCCO1 | > 100 | 
CC(C)=CCc1c2c(c3occ(-c4ccc(O)cc4)c(=O)c3c1O)CC(C(C)(C)O)O2 (stereo not given) | 33 | 
CCOC(=O)C(SCCO)C(C(=O)OCC)n1cnc2c(=O)[nH]c(NC(C)=O)nc21 (stereo not given) | > 100 | 
O=[N+]([O-])c1ccc2c(c1)c(OCc1ccccc1)nn2Cc1ccccc1 | > 100 | 
C#CCNC(CS)C(=O)O (stereo not given) | > 100 | 
Cc1ccc(N=NC(=Nc2ccccc2)c2ccc(N(CCC#N)CCC#N)cc2)cc1 | > 100 | 
Cc1ccccc1C(=O)N1CCc2c([nH]c3ccccc23)C1 | > 100 | 
CC[C@@H]1CC[C@@H]2[C@H](CC[C@]3(C)[C@@H](OC(C)=O)CC[C@@H]23)[C@H]1COC(C)=O | > 100 | 
NS(=O)(=O)c1ccc2c(c1)OCCOCCOCCOCCO2 | > 100 | 
CCOC(=O)/C=C/CC(C)(C)CCOC(C)=O | > 10 | 
COC(=O)C([C@H](NC1(c2ccccc2)c2ccccc2-c2ccccc21)C(=O)OC)N(NC(=O)OCc1ccccc1)C(=O)OCc1ccccc1 (mixture of isomers) | > 100 | 
COC(=O)c1cc(=O)nc2sc3cccc(C)c3n12 | > 100 | 

Tested on: SK-MEL-5 melanoma
Assay: NCI anticancer screen, dose series, 48 h

SMILES | TGI [µM] | GI50 [µM]
NC(N)=N/N=C/c1c(-c2ccc(N)cc2)nc2sccn12 | > 100 | 
CCCCCCc1cc2cc(-c3csc(CC#N)n3)c(=O)oc2cc1O | > 100 | 
C=C1C(=O)O[C@@H]2C(=O)[C@@H](C)CCC/C(C)=C/CC[C@@]3(C)O[C@@H]3C[C@@H]12 | 56.7 | 
COc1cc(Br)cc2cc(-c3cn4ccsc4n3)c(=O)oc12 | 49.9 | 
O=C(NC(=O)c1ccccc1[N+](=O)[O-])Nc1ccc(Oc2ncc(Br)cn2)c(Cl)c1 |  | 0.04
ClCCN1CCC2(CC1)SSC1(CCN(CCCl)CC1)S2 | > 100 | 
O=c1c2cc([N+](=O)[O-])cnc2sn1-c1ccc([N+](=O)[O-])cc1 | > 100 | 
COC(=O)C1SC(SC)=NC12c1ccccc1Nc1ccccc12 (stereo not given) | 31 | 
COc1ccc2cc(NC(=O)N/N=C\c3ccc([N+](=O)[O-])cc3)ccc2c1 | > 100 | 
CCOC(=O)C1(C/C=C/CBr)Cc2ccccc2C1=O (stereo not given) | 7.66 | 
CN1CCc2cc(N)cc3c2C1Cc1ccc(O)c(O)c1-3 (stereo not given) | 46.5 | 
CCCN(C(=O)c1ccccc1)C(C#N)c1ccc(C(C#N)N(CCC)C(=O)c2ccccc2)cc1 (stereo not given) | > 100 | 
S=C1Nc2ccccc2SC1c1ccccc1 (stereo not given) | > 100 | 
COC(=O)c1ccccc1CC1Cc2ccc3c(c2C1=O)CCCC3 (stereo not given) | 34.8 | 
CN1CCN(C2=NCCO2)CC1 | > 100 | 
c1ccc(N=c2sc3ccccc3nc2Nc2ccccc2)cc1 | > 100 | 
CCOC(=O)c1csc(NC(=O)CN2CCOCC2)n1 | > 100 | 

SMILES | TGI [µM] | GI50 [µM]
O=C1/C(=C/c2ccccc2)N=C2Sc3c(nc[nH]c3=O)N12 | > 100 | 
C=CC1(C)CCC2C(=CCC3C2(C)CC(O)C(O)C3(C)COC2OC(C(=O)O)C(O)C(O)C2O)C1 (stereo not given) (tested in a mixture with another compound) | > 100 | 
N#Cc1c(N2CCCC2)ncn(-c2ccccc2)c1=O | > 100 | 
O=[N+]([O-])c1ccc2c(c1)/C(=N/N=C1c3ccccc3Cc3ccccc31)c1cc([N+](=O)[O-])cc([N+](=O)[O-])c1-2 | 15 | 
CN(C(=O)C(Cc1ccccc1)NC(=O)OC(C)(C)C)C1(C(=O)NC(Cc2ccccc2)C(=O)OCc2ccccc2)CCCC1 (stereo not drawn) (Boc-Phe-[NMeAc5c]-Phe-OBn; configuration not given here) | > 100 | 
Cc1ccc([N+](=O)[O-])cc1NC1=NCCO1 | > 100 | 
CC(C)=CCc1c2c(c3occ(-c4ccc(O)cc4)c(=O)c3c1O)CC(C(C)(C)O)O2 (stereo not given) | 30.1 | 
CCOC(=O)C(SCCO)C(C(=O)OCC)n1cnc2c(=O)[nH]c(NC(C)=O)nc21 (stereo not given) | > 100 | 
O=[N+]([O-])c1ccc2c(c1)c(OCc1ccccc1)nn2Cc1ccccc1 | > 100 | 
C#CCNC(CS)C(=O)O (stereo not given) | > 100 | 
Cc1ccc(N=NC(=Nc2ccccc2)c2ccc(N(CCC#N)CCC#N)cc2)cc1 | 47 | 
Cc1ccccc1C(=O)N1CCc2c([nH]c3ccccc23)C1 | 29.6 | 
CC[C@@H]1CC[C@@H]2[C@H](CC[C@]3(C)[C@@H](OC(C)=O)CC[C@@H]23)[C@H]1COC(C)=O | 32.7 | 
NS(=O)(=O)c1ccc2c(c1)OCCOCCOCCOCCO2 | > 100 | 
CCOC(=O)/C=C/CC(C)(C)CCOC(C)=O | > 10 | 
COC(=O)C([C@H](NC1(c2ccccc2)c2ccccc2-c2ccccc21)C(=O)OC)N(NC(=O)OCc1ccccc1)C(=O)OCc1ccccc1 (mixture of isomers) | > 100 | 
COC(=O)c1cc(=O)nc2sc3cccc(C)c3n12 | > 100 | 

Tested on: MOLT-4 leukemia
Assay: NCI anticancer screen, dose series, 48 h

SMILES | TGI [µM] | GI50 [µM]
NC(N)=N/N=C/c1c(-c2ccc(N)cc2)nc2sccn12 | 73.9 | 
CCCCCCc1cc2cc(-c3csc(CC#N)n3)c(=O)oc2cc1O | > 100 | 
C=C1C(=O)O[C@@H]2C(=O)[C@@H](C)CCC/C(C)=C/CC[C@@]3(C)O[C@@H]3C[C@@H]12 | > 100 | 
COc1cc(Br)cc2cc(-c3cn4ccsc4n3)c(=O)oc12 | > 100 | 
O=C(NC(=O)c1ccccc1[N+](=O)[O-])Nc1ccc(Oc2ncc(Br)cn2)c(Cl)c1 |  | < 0.0222
ClCCN1CCC2(CC1)SSC1(CCN(CCCl)CC1)S2 | > 100 | 
O=c1c2cc([N+](=O)[O-])cnc2sn1-c1ccc([N+](=O)[O-])cc1 | 75.6 | 
COC(=O)C1SC(SC)=NC12c1ccccc1Nc1ccccc12 (stereo not given) | 71.1 | 
COc1ccc2cc(NC(=O)N/N=C\c3ccc([N+](=O)[O-])cc3)ccc2c1 | > 100 | 
CCOC(=O)C1(C/C=C/CBr)Cc2ccccc2C1=O (stereo not given) | 8.31 | 
CN1CCc2cc(N)cc3c2C1Cc1ccc(O)c(O)c1-3 (stereo not given) | 39.9 | 
CCCN(C(=O)c1ccccc1)C(C#N)c1ccc(C(C#N)N(CCC)C(=O)c2ccccc2)cc1 (stereo not given) | > 100 | 
S=C1Nc2ccccc2SC1c1ccccc1 (stereo not given) | > 100 | 
COC(=O)c1ccccc1CC1Cc2ccc3c(c2C1=O)CCCC3 (stereo not given) | 46.5 | 
CN1CCN(C2=NCCO2)CC1 | > 100 | 
c1ccc(N=c2sc3ccccc3nc2Nc2ccccc2)cc1 | > 100 | 
CCOC(=O)c1csc(NC(=O)CN2CCOCC2)n1 | 48.5 | 
